This passage reports GI50 and TGI results from PubChem BioAssay (NCI).

Test systems include 786-0 renal; SW-620 colon; KM12 colon; HOP-62 NSCLC; PC-3 prostate; M14 melanoma; T-47D breast; BT-549 breast; MCF7 breast; CAKI-1 renal.
Common to all, as to assay: inhibition of tumour cell growth, NCI panel, 48 h

Structures are written as SMILES.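 Where inhibition never reached the appropriate level, the endpoint shown equals the highest concentration tested. Otherwise, values were interpolated linearly from a five-concentration, 48-hour dose response in 96-well plates. Abbreviation: GI50, concentration required for 50% inhibition of growth. TGI: total growth inhibition.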

As to `COc1ccc(NC(=O)c2sc3nc4c(cc3c2N)CCCC4)cc1`, the GI50 in the test with 786-0 renal is 0.36 µM; in the test with SW-620 colon it was 0.429 µM; with KM12 colon, 0.612 µM; in the test with HOP-62 NSCLC it was 0.752 µM; in the test with PC-3 prostate it was 0.822 µM; with M14 melanoma it was 0.254 µM. Also, the GI50 in the test with T-47D breast was 0.547 µM; in the test with BT-549 breast, 0.41 µM; in the test on MCF7 breast, 0.348 µM. In addition, the TGI in the test with 786-0 renal was 30.5 µM; in the test on SW-620 colon, above 100 µM; in the test with KM12 colon, 82.9 µM; in the test with HOP-62 NSCLC, above 100 µM; in the test on PC-3 prostate it was above 100 µM; in the test with M14 melanoma it was 1.28 µM. Moreover, the TGI in the test on T-47D breast was 96.9 µM; in the test on BT-549 breast, 13.9 µM; in the test on MCF7 breast, above 100 µM.
With `CN(C)C(=O)SC1=C(c2c(Cl)cccc2Cl)C(=O)c2ccccc21`, the GI50 with 786-0 renal was 10.3 µM; in the test on SW-620 colon, 2.17 µM; with KM12 colon, 14.8 µM; with HOP-62 NSCLC it was 18.7 µM; in the test on PC-3 prostate it was 7.95 µM; with M14 melanoma, 3.03 µM. In addition, the GI50 with CAKI-1 renal was 2.15 µM; in the test on BT-549 breast it was 9.78 µM; in the test on MCF7 breast, 2.51 µM. For the same compound, the TGI in the test with 786-0 renal was 22.4 µM; in the test on SW-620 colon, 5.01 µM; in the test on KM12 colon, 28.6 µM; with HOP-62 NSCLC, 36.7 µM; in the test with PC-3 prostate it was 22.8 µM; with M14 melanoma it was 7.79 µM. Further, the TGI in the test on CAKI-1 renal was 5.72 µM; with BT-549 breast, 23.5 µM; in the test on MCF7 breast it was 7.73 µM.
On to `COc1ccccc1/C=C\C(=O)c1ccccc1`, for which the GI50 in the test with 786-0 renal is 15 µM; in the test on KM12 colon, 2.79 µM; in the test with HOP-62 NSCLC, 17.3 µM; with PC-3 prostate, 5.85 µM; in the test with M14 melanoma it was 12.5 µM; in the test with T-47D breast, 5.44 µM. The GI50 with CAKI-1 renal is 3.68 µM; with BT-549 breast it was 11 µM; in the test on MCF7 breast, 1.92 µM. Also, the TGI was determined as 28.4 µM in the test on 786-0 renal; 6.32 µM in the test with KM12 colon; 32.6 µM with HOP-62 NSCLC; 23 µM in the test with PC-3 prostate; 25.6 µM in the test on M14 melanoma; 20 µM with T-47D breast. Also, the TGI in the test with CAKI-1 renal turned out to be 12.2 µM; in the test on BT-549 breast it was 23.3 µM; in the test on MCF7 breast, 12.6 µM.
For the compound `Nc1ccn([C@@H]2C(F)=C(CO)[C@@H](O)[C@H]2O)c(=O)n1`, the GI50 in the test with 786-0 renal is 0.726 µM; with SW-620 colon, 0.546 µM; in the test on KM12 colon, 0.65 µM; in the test on M14 melanoma it was 0.859 µM; in the test with T-47D breast, 5.02 µM; in the test on CAKI-1 renal, 7.1 µM. Also, the values for the GI50 in the test with BT-549 breast and in the test on MCF7 breast were 23.5 µM and 0.362 µM, respectively. The TGI with 786-0 renal, with SW-620 colon, with KM12 colon, with M14 melanoma, with T-47D breast and in the test with CAKI-1 renal was above 100 µM throughout. In addition, the TGI in the test with BT-549 breast and with MCF7 breast was above 100 µM in each case.
Regarding `O=C(Nc1cc(S(=O)(=O)c2ccc(Cl)cc2)ccc1Cl)c1cc(I)cc(I)c1O`, the GI50 in the test on 786-0 renal was 15.6 µM; in the test on SW-620 colon, 16.7 µM; in the test on KM12 colon it was 14.2 µM; in the test with HOP-62 NSCLC it was 18.6 µM; in the test with PC-3 prostate it was 14.4 µM; in the test with M14 melanoma, 17.6 µM. The figures for the GI50 in the test on CAKI-1 renal, with BT-549 breast and in the test with MCF7 breast were 20.3 µM, 19.9 µM and 18.4 µM, respectively. The TGI is 30 µM with 786-0 renal; 32 µM in the test on SW-620 colon; 27.4 µM with KM12 colon; 34.1 µM in the test with HOP-62 NSCLC; 28.6 µM in the test with PC-3 prostate; 35 µM in the test on M14 melanoma. The TGI is 38.2 µM with CAKI-1 renal, 39.8 µM with BT-549 breast and 36.9 µM in the test with MCF7 breast.
With `CC1(C)C2CCC13C(=O)C1OC3(C2)C2C(=O)c3c(O)cccc3C(=O)C12` (stereo unspecified), the GI50 in the test on 786-0 renal was 0.319 µM; in the test with KM12 colon, 2.6 µM; in the test on HOP-62 NSCLC it was 16.1 µM; in the test with PC-3 prostate, 0.835 µM; with M14 melanoma, 3.24 µM; in the test with T-47D breast it was 0.906 µM. In addition, the GI50 is 1.4 µM with CAKI-1 renal, 1.2 µM with BT-549 breast and 3.37 µM in the test on MCF7 breast. For the same compound, the TGI worked out at 0.829 µM with 786-0 renal; 14.9 µM in the test on KM12 colon; 31.7 µM with HOP-62 NSCLC; 3.09 µM in the test with PC-3 prostate; 12.2 µM in the test with M14 melanoma; 6.58 µM with T-47D breast. Moreover, the figures for the TGI with CAKI-1 renal, in the test on BT-549 breast and in the test with MCF7 breast were 2.95 µM, 3.34 µM and 15.4 µM, respectively.
